Patent publication US9981975B2, “Pyrrolotriazine compounds as tam inhibitors” (Incyte Corporation, priority 2016, dated 2018)

What was measured:
Type in all cases: biochemical
phosphor-Axl = phosphor-Axl (Homo sapiens (Human), UniProt P30530); test: TAM Enzymatic Assay (HTRF), Axl; settings: recombinant autophosphorylated Axl, 60 min, room temperature
c-Mer = c-Mer (Homo sapiens (Human), UniProt Q12866); test: TAM Enzymatic Assay (HTRF), Mer; settings: 60 min, room temperature
How it was run: (§1)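 Reactions ran 60 min at room temperature, protected from light, started by substrate addition to enzyme plus DMSO compound, in pH 7.5 HEPES buffer with 10 mM MgCl2, 1 mM EGTA, 0.01% NP-40, 2 mM DTT.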

Tyro3 = Tyro3 (Homo sapiens (Human), UniProt Q06418); test: TAM Enzymatic Assay (HTRF), Tyro3; settings: Tyro3, 60 min, room temperature
How it was run: as §1

phosphor-Axl, sequence (P30530 26-894): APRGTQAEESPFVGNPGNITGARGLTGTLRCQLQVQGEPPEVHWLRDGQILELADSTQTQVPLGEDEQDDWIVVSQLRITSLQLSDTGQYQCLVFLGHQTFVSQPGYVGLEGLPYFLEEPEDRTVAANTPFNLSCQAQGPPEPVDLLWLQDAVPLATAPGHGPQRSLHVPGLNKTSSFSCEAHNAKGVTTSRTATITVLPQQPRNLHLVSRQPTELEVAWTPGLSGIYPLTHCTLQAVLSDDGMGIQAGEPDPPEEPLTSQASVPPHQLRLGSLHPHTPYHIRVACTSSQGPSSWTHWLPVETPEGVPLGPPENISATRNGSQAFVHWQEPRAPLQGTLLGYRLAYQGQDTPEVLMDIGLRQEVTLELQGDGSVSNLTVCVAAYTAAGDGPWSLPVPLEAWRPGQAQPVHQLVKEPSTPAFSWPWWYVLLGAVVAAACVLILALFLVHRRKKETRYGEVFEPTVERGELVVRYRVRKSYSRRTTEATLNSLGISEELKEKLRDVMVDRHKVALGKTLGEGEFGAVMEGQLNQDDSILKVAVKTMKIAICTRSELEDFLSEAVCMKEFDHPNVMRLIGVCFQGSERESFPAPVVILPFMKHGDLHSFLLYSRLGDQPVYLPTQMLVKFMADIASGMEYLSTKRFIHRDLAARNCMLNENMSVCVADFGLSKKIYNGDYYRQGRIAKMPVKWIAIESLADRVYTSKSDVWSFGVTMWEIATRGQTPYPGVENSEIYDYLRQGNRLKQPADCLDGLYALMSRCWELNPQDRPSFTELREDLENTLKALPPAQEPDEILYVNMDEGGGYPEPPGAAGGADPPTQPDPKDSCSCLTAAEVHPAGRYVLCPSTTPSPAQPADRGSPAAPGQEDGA
Tyro3, sequence (Q06418 41-890): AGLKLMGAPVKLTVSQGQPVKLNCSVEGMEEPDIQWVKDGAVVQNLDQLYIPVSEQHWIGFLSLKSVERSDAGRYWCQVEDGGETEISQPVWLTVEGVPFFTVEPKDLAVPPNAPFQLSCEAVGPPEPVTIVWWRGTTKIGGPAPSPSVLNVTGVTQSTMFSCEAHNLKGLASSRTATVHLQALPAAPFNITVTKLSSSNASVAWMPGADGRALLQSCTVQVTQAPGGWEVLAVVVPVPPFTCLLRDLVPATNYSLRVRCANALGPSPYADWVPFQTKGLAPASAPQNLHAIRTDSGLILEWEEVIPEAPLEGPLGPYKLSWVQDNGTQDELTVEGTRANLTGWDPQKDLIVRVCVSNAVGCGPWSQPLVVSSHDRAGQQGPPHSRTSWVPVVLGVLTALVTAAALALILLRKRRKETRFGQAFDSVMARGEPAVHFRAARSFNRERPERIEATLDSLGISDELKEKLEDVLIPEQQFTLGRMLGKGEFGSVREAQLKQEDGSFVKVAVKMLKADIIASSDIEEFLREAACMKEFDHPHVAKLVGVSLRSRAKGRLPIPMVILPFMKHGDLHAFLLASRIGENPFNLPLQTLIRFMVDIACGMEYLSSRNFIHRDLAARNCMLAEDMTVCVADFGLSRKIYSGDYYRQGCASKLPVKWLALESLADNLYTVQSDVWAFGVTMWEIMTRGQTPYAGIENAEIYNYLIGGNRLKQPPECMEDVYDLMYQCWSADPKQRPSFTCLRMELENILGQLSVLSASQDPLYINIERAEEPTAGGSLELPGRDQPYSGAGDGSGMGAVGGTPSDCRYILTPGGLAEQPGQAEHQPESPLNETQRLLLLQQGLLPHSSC
c-Mer, sequence (Q12866 21-999): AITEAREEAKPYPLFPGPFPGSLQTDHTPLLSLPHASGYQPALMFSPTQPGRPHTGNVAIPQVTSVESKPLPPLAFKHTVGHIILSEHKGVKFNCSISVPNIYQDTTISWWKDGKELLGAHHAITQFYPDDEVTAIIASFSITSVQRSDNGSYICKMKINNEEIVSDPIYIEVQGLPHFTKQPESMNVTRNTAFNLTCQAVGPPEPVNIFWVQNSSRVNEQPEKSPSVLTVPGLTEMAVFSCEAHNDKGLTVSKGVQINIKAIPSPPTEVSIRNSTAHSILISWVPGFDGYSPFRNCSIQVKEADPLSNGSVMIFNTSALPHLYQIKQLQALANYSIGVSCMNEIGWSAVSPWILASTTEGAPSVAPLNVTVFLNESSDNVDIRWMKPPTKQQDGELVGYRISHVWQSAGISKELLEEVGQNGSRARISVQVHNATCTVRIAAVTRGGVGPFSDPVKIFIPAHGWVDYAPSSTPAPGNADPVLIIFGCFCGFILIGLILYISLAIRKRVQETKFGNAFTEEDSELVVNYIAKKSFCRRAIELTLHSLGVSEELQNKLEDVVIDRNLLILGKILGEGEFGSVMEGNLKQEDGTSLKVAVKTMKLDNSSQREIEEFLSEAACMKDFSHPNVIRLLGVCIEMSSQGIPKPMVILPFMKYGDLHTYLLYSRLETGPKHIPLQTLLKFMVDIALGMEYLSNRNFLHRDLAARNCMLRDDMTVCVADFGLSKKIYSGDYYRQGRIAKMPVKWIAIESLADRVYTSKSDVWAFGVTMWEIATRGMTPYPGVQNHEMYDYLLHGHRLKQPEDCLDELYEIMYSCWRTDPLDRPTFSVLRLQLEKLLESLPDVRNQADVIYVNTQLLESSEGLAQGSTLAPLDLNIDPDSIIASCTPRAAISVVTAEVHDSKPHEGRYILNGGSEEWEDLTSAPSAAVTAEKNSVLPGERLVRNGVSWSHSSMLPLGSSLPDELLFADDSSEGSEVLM

Structure (SMILES)	IC50 (phosphor-Axl)	IC50 (c-Mer)	IC50 (Tyro3)
Cc1c(-c2cncc(F)c2)c(=O)c(C(=O)Nc2ccc(-c3cc(C4CCN(C(=O)C(C)C)CC4)n4ncnc(N)c34)cc2)cn1C(C)C [Example 98, N-(4-(4-Amino-7-(1-isobutyrylpiperidin-4-yl)pyrrolo[2,1-f][1,2,4]triazin-5-yl)phenyl)-5′-fluoro-1-isopropyl-2-methyl-4-oxo-1,4-dihydro-[3,3′-bipyridine]-5-carboxamide]	≤ 5 nM	≤ 5 nM	10 to 100 nM
Cc1c(-c2cccc(C#N)c2)c(=O)c(C(=O)Nc2ccc(-c3cc(C4CCN(C(=O)C(C)C)CC4)n4ncnc(N)c34)cc2)cn1C(C)C [Example 99, N-(4-(4-Amino-7-(1-isobutyrylpiperidin-4-yl)pyrrolo[2,1-f][1,2,4]triazin-5-yl)phenyl)-5-(3-cyanophenyl)-1-isopropyl-6-methyl-4-oxo-1,4-dihydropyridine-3-carboxamide]	≤ 5 nM	≤ 5 nM	10 to 100 nM
Cc1c(Br)cc(C(=O)Nc2ccc(-c3cc(C4CCN(C(=O)C(C)C)CC4)n4ncnc(N)c34)cc2)c(=O)n1-c1cncc(F)c1 [Example 101, N-(4-(4-Amino-7-(1-isobutyrylpiperidin-4-yl)pyrrolo[1,2-f][1,2,4]triazin-5-yl)phenyl)-5-bromo-1-(5-fluoropyridin-3-yl)-6-methyl-2-oxo-1,2-dihydropyridine-3-carboxamide]	≤ 5 nM	≤ 5 nM	> 100 nM
Cc1c(CC#N)cc(C(=O)Nc2ccc(-c3cc(C4CCN(C(=O)C(C)C)CC4)n4ncnc(N)c34)cc2)c(=O)n1-c1cncc(F)c1 [Example 102, N-(4-(4-Amino-7-(1-isobutyrylpiperidin-4-yl)pyrrolo[2,1-f][1,2,4]triazin-5-yl)phenyl)-5-(cyanomethyl)-5′-fluoro-6-methyl-2-oxo-2H-[1,3′-bipyridine]-3-carboxamide]	≤ 5 nM	≤ 5 nM	10 to 100 nM
Cc1c(-c2cscn2)cc(C(=O)Nc2ccc(-c3cc(C4CCN(C(=O)C(C)C)CC4)n4ncnc(N)c34)cc2)c(=O)n1-c1cncc(F)c1 [Example 103, N-(4-(4-Amino-7-(1-isobutyrylpiperidin-4-yl)pyrrolo[2,1-f][1,2,4]triazin-5-yl)phenyl)-5′-fluoro-6-methyl-2-oxo-5-(thiazol-4-yl)-2H-[1,3′-bipyridine]-3-carboxamide]	≤ 5 nM	≤ 5 nM	10 to 100 nM
CC(C)C(=O)N1CCC(c2cc(-c3ccc(NC(=O)c4cc5c(n(-c6cncc(F)c6)c4=O)CCCC5=O)cc3)c3c(N)ncnn23)CC1 [Example 113, N-(4-(4-Amino-7-(1-isobutyrylpiperidin-4-yl)pyrrolo[1,2-f][1,2,4]triazin-5-yl)phenyl)-1-(5-fluoropyridin-3-yl)-2,5-dioxo-1,2,5,6,7,8-hexahydroquinoline-3-carboxamide]	≤ 5 nM	≤ 5 nM	10 to 100 nM
CC(C)C(=O)N1CCC(c2cc(-c3ccc(NC(=O)c4cc5c(n(-c6cccnc6)c4=O)CC(C)(C)CC5=O)cc3)c3c(N)ncnn23)CC1 [Example 114, N-(4-(4-Amino-7-(1-isobutyrylpiperidin-4-yl)pyrrolo[1,2-f][1,2,4]triazin-5-yl)phenyl)-7,7-dimethyl-2,5-dioxo-1-(pyridin-3-yl)-1,2,5,6,7,8-hexahydroquinoline-3-carboxamide]	≤ 5 nM	≤ 5 nM	10 to 100 nM
Cc1c(Br)cc(C(=O)Nc2ccc(-c3cc(C4CCN(C(=O)C(C)C)CC4)n4ncnc(N)c34)cc2)c(=O)n1-c1ccccn1 [Example 118, N-(4-(4-Amino-7-(1-isobutyrylpiperidin-4-yl)pyrrolo[2,1-f][1,2,4]triazin-5-yl)phenyl)-5-bromo-6-methyl-2-oxo-2H-[1,2′-bipyridine]-3-carboxamide]	≤ 5 nM	≤ 5 nM	> 100 nM
Cc1c(-c2ncco2)c(=O)c(C(=O)Nc2ccc(-c3cc(C4CCN(C(=O)C(C)C)CC4)n4ncnc(N)c34)cc2)cn1C1CC1 [Example 119, N-(4-(4-Amino-7-(1-isobutyrylpiperidin-4-yl)pyrrolo[2,1-f][1,2,4]triazin-5-yl)phenyl)-1-cyclopropyl-6-methyl-5-(oxazol-2-yl)-4-oxo-1,4-dihydropyridine-3-carboxamide]	≤ 5 nM	≤ 5 nM	> 100 nM

Next, values leading:

IC50 (phosphor-Axl)	IC50 (c-Mer)	IC50 (Tyro3)	Structure (SMILES)
≤ 5 nM	≤ 5 nM	10 to 100 nM	CCn1cc(C(=O)Nc2ccc(-c3cc(C4CCN(C(=O)[C@@H](C)O)CC4)n4ncnc(N)c34)cc2)c(=O)n(-c2ccc(F)cc2)c1=O [Example 79, (R)—N-(4-(4-Amino-7-(1-(2-hydroxypropanoyl)piperidin-4-yl)pyrrolo[1,2-f][1,2,4]triazin-5-yl)phenyl)-1-ethyl-3-(4-fluorophenyl)-2,4-dioxo-1,2,3,4-tetrahydropyrimidine-5-carboxamide]
≤ 5 nM	≤ 5 nM	10 to 100 nM	CC(C)n1cc(C(=O)Nc2ccc(-c3cc(C4CCN(CC(=O)N(C)C)CC4)n4ncnc(N)c34)cc2)c(=O)n(-c2ccccc2)c1=O [Example 81, N-(4-(4-Amino-7-(1-(2-(dimethylamino)-2-oxoethyl)piperidin-4-yl)pyrrolo[1,2-f][1,2,4]triazin-5-yl)phenyl)-1-isopropyl-2,4-dioxo-3-phenyl-1,2,3,4-tetrahydropyrimidine-5-carboxamide]
≤ 5 nM	≤ 5 nM	10 to 100 nM	CC(C)C(=O)N1CCC(c2cc(-c3ccc(NC(=O)c4cn(C(C)C)c(=O)n(-c5ccccn5)c4=O)cc3)c3c(N)ncnn23)CC1 [Example 83, N-(4-(4-Amino-7-(1-isobutyrylpiperidin-4-yl)pyrrolo[1,2-f][1,2,4]triazin-5-yl)phenyl)-1-isopropyl-2,4-dioxo-3-(pyridin-2-yl)-1,2,3,4-tetrahydropyrimidine-5-carboxamide]
≤ 5 nM	≤ 5 nM	> 100 nM	CC(C)C(=O)N1CCC(c2cc(-c3ccc(NC(=O)c4cn(C(C)C)c(=O)n(-c5cnn(C)c5)c4=O)cc3)c3c(N)ncnn23)CC1 [Example 87, N-(4-(4-Amino-7-(1-isobutyrylpiperidin-4-yl)pyrrolo[2,1-f][1,2,4]triazin-5-yl)phenyl)-1-isopropyl-3-(1-methyl-1H-pyrazol-4-yl)-2,4-dioxo-1,2,3,4-tetrahydropyrimidine-5-carboxamide]
≤ 5 nM	≤ 5 nM	10 to 100 nM	CC(C)C(=O)N1CCC(c2cc(-c3ccc(NC(=O)c4cn(C(C)C)c(=O)n(-c5ccn(C)n5)c4=O)cc3)c3c(N)ncnn23)CC1 [Example 88, N-(4-(4-Amino-7-(1-isobutyrylpiperidin-4-yl)pyrrolo[2,1-f][1,2,4]triazin-5-yl)phenyl)-1-isopropyl-3-(1-methyl-1H-pyrazol-3-yl)-2,4-dioxo-1,2,3,4-tetrahydropyrimidine-5-carboxamide]
≤ 5 nM	≤ 5 nM	≤ 5 nM	CC(C)n1cc(C(=O)Nc2ccc(-c3cc(C4CCC(N(C)C)CC4)n4ncnc(N)c34)cc2)c(=O)n(-c2ccccc2)c1=O (stereo not drawn) [Example 93, N-(4-(4-Amino-7-(4-(dimethylamino)cyclohexyl)pyrrolo[2,1-f][1,2,4]triazin-5-yl)phenyl)-1-isopropyl-2,4-dioxo-3-phenyl-1,2,3,4-tetrahydropyrimidine-5-carboxamide]
≤ 5 nM	≤ 5 nM	10 to 100 nM	CC(C)C(=O)N1CCC(c2cc(-c3ccc(NC(=O)c4nn(C(C)C)c(=O)n(-c5ccccc5)c4=O)cc3)c3c(N)ncnn23)CC1 [Example 96, N-(4-(4-Amino-7-(1-isobutyrylpiperidin-4-yl)pyrrolo[1,2-f][1,2,4]triazin-5-yl)phenyl)-2-isopropyl-3,5-dioxo-4-phenyl-2,3,4,5-tetrahydro-1,2,4-triazine-6-carboxamide]
≤ 5 nM	≤ 5 nM	> 100 nM	Cc1cc(C(=O)Nc2ccc(-c3cc(C4CCN(C(=O)C(C)C)CC4)n4ncnc(N)c34)cc2)c(=O)n(-c2ccccc2)c1-c1cccnc1 [Example 106, N-(4-(4-Amino-7-(1-isobutyrylpiperidin-4-yl)pyrrolo[2,1-f][1,2,4]triazin-5-yl)phenyl)-3-methyl-6-oxo-1-phenyl-1,6-dihydro-[2,3′-bipyridine]-5-carboxamide]
≤ 5 nM	≤ 5 nM	10 to 100 nM	Cc1c(-c2ncccn2)cc(C(=O)Nc2ccc(-c3cc(C4CCN(C(=O)C(C)C)CC4)n4ncnc(N)c34)cc2)c(=O)n1-c1ccccc1 [Example 108, N-{4-[4-Amino-7-(1-isobutyrylpiperidin-4-yl)pyrrolo[2,1-f][1,2,4]triazin-5-yl]phenyl}-6-methyl-2-oxo-1-phenyl-5-pyrimidin-2-yl-1,2-dihydropyridine-3-carboxamide]
≤ 5 nM	≤ 5 nM	5 to 10 nM	Cc1c(-c2ncccn2)cc(C(=O)Nc2ccc(-c3cc(C4CCN(C)CC4)n4ncnc(N)c34)cc2)c(=O)n1-c1ccccc1 [Example 109]
≤ 5 nM	≤ 5 nM	> 100 nM	Cc1c(C#N)cc(C(=O)Nc2ccc(-c3cc(C4CCN(C(=O)C(C)C)CC4)n4ncnc(N)c34)cc2)c(=O)n1-c1ccccc1 [Example 111, N-(4-(4-Amino-7-(1-isobutyrylpiperidin-4-yl)pyrrolo[2,1-f][1,2,4]triazin-5-yl)phenyl)-5-cyano-6-methyl-2-oxo-1-phenyl-1,2-dihydropyridine-3-carboxamide]
≤ 5 nM	≤ 5 nM	10 to 100 nM	CC(C)C(=O)N1CCC(c2cc(-c3ccc(NC(=O)c4cnc(-c5cccnc5)n(-c5ccccc5)c4=O)cc3)c3c(N)ncnn23)CC1 [Example 116, N-{4-[4-Amino-7-(1-isobutyrylpiperidin-4-yl)pyrrolo[2,1-f][1,2,4]triazin-5-yl]phenyl}-6-oxo-1-phenyl-2-pyridin-3-yl-1,6-dihydropyrimidine-5-carboxamide]
